Laboratory results: PMC3545992, “Trisubstituted Pyrazolopyrimidines as Novel Angiogenesis Inhibitors” (PLoS ONE, 2013)
pIC50: −log10 of the molar value. Where two headings read alike, the source gives them in different places.

What was measured:
Type in all cases: cell-based, human
HUVECs [1] = assay: Cell viability assay (CellTiter-Blue) in confluent HUVECs; details: 30 µM, 16 h
Experimental: Figure 2 Cdk5 is expressed in HUVECs and HMEC-1 cells, and the compounds are not cytotoxic to endothelial cells at concentrations used in functional assays. A: Cdk5 protein expression in endothelial cells in comparison to human cortex. Cdk5 protein amount was analyzed by Western blot in samples of human cortex (HC), confluent HUVECs (HU) and HMEC-1 (HM). β-actin served as a loading control and for normalization of protein amount. Relative quantification (left panel) and one representative image (right panel) of three individual blots are shown. Note the much lower protein loading in the HC sample in the right panel. (n = 3, mean ± SEM, p>0.05, One Way ANOVA, Dunnett). B: Confluent HUVECs were treated for 16 h with 10 or 30 µM of the indicated compounds or left untreated as control. After addition of CellTiter-BlueTM Reagent, cells were incubated for 4 h and fluorescence was measured at 560 nm (n = 3, mean ± SEM, * p<0.05, One Way ANOVA, Dunnett).
HUVECs were seeded in 96-well plates. After reaching confluency, the cells were treated for 16 h with the indicated compounds or left untreated as control. After addition of CellTiter-Blue^TM Reagent (Promega Corporation, Madison, WI, USA), cells were incubated for additional 4 h and fluorescence was measured at 560 nm in a plate-reading photometer (SpectraFluor Plus; Tecan, Crailsheim, Germany).

HMEC-1 cells = assay: Crystal violet proliferation assay; details: HMEC-1, 72 h, read-out: IC50 endothelial cell proliferation
Experimental: HMEC-1 cells were seeded to a density of 1,500 cells/well. After 24 h of incubation, a zero point control was stained with crystal violet. The remaining cells were left untreated as positive control or treated with 0.3-1-3-10–30 µM of the indicated compounds. After 72 h additional incubation, relative proliferation was determined by crystal violet staining and quantified as absorption at 550 nm.
HMEC-1 were seeded into 96-well-plates (1,500 cells/well). After 24 h, the cells were stimulated with the indicated compounds. At the same time point, cells in a reference plate were stained with crystal violet, serving as initial cell number. After 72 hours of stimulation, cells were fixed and stained with crystal-violet solution for 10 minutes, washed with water, and air dried. Crystal violet was eluted with dissolving buffer and absorbance was measured at 550 nm (Tecan Sunrise Absorbance reader, TECAN, Crailsheim, Germany). In a parallel series of experiments, cells seeded at the same cell density as in the proliferation assays were treated with 30 µM of the respective compound for 72 h. Afterwards, 10 µg/ml propidium iodide was added for 30 min to counterstain cells for membrane integrity. Phase contrast and fluorescence images were obtained with an inverted Nikon microscope (Ti, Nikon, Düsseldorf, Germany) equipped with a 10x objective.

HUVECs [2] = assay: Chemotaxis assay in FCS gradient (µ-slides Chemotaxis); details: for chemotaxis of endothelial cells (in words): 10 µM; for inhibition at 10 µM: Homo sapiens, HUVEC, read-out: inhibition of chemotaxis in accumulative distance
Experimental: Figure 5 LGR 1404, 1406 and 1407 decrease chemotaxis of endothelial cells. Chemotaxis of HUVECs in the presence or absence of 10 µM of the indicated compounds was determined in µ-slides Chemotaxis. A: Quantitative evaluation of accumulated and euclidean distance, velocity and y-forward migration index (n = 3, mean ± SEM, * p<0.05, One Way ANOVA, Dunnett). B: Representative cell tracking plots of untreated and treated cells.
The effect of the LGR compounds on endothelial cell chemotaxis was determined using Collagen IV coated μ-slides Chemotaxis (ibidi, Martinsried, Germany). HUVECs (5×10^6 cells per ml) were seeded into the observation channel of the slides according to the manual of the manufacturer, and the cells were allowed to attach for 4 hours. Then, the chambers of the chemotaxis slide were completely filled with serum-free medium M 199; and growth medium containing 30% FCS was added to one chamber in order to generate an FCS-gradient from 0% to […]. 10 µM of the indicated compounds were added both to the M199 and to the 30% FCS. Chemotaxis was observed over 20 hours by live-cell imaging with a Zeiss LSM 510 META confocal microscope equipped with an incubator stage (EMBLem, Heidelberg, Germany). A time series was collected taking 1 picture every 10 minutes. For cell tracking and data analysis, the manual tracking plug-in (Fabrice Cordelieres) and the Chemotaxis and Migration Tool (Version 1.01, ibidi, Martinsried, Germany) for ImageJ were used. Euclidean distance (direct distance from the starting point to the end point) was used as an indicator of directionality of movement, accumulative distance (sum of all migrated distances from track to track) and velocity (mean velocity of every cell calculated as ratio between track to track distance and time) were used as a measure for total motility.

HUVECs [3] = assay: Tube formation assay on Matrigel; details: 10 µM, 16 h
Experimental: Figure 6 LGR 1404, 1406 and 1407 inhibit tube formation at 10 µM. HUVECs were seeded onto a matrix of growth-factor reduced Matrigel^TM in the presence or absence of the respective concentration of the compounds. After 16 h of incubation, images were taken and tube characteristics were quantified. A: Number of tubes (n = 3, mean ± SEM, * p<0.05, One Way ANOVA, Dunnett). B: Number of branching points (n = 3, mean ± SEM, * p<0.05, One Way ANOVA, Dunnett). C: Tube total length (n = 3, mean ± SEM, * p<0.05, One Way ANOVA, Dunnett). D: Representative images of the tube formation assay and the software based tube recognition (structures identified as tubes are blue) in a control (Co, left panel) and after treatment with LGR 1406 (10 µM, right panel).
Pre-cooled BD Matrigel^TM Matrix Growth Factor Reduced (GFR) (BD Biosciences, Heidelberg, Germany) was filled into the lower compartment of μ-slide Angiogenesis wells (ibidi GmbH, Martinsried, Germany) on ice. For polymerization of the Matrigel^TM Matrix, the slides were incubated at 37°C for 30 min. 12,000 HUVECs/well were seeded onto the Matrigel^TM and stimulated for 16 h. The extent of tube formation was determined by light microscopy using the TILLvisON system. Quantitative image analysis of tube length, number of branching points and tube number was performed with a software tool from Wimasis GmbH, Munich.

Row | Structure (SMILES) | cell viability in comparison to control (HUVECs [1]) | pIC50 (HMEC-1 cells; Homo sapiens) | chemotaxis of endothelial cells (in words) (HUVECs [2]) | inhibition at 10 µM (HUVECs [2]) | reduction of total tube length (HUVECs [3]) | tube and branching point numbers and total tube length (in words) (HUVECs [3]) | pIC50 (HMEC-1 cells) | reduction of number of branching points (HUVECs [3]) | reduction of tube number (HUVECs [3]) | reduction of total tube length (HUVECs [3]; listed as LGR1407)
1 | CC[C@H](CO)Nc1nc(NCc2ccccc2)c2n[nH]c(C(C)C)c2n1 [LGR 1404, 7-Benzylamino-5(R)-[(1-hydroxymethyl)propylamino]-3-isopropyl-1(2)H-pyrazolo[4,3-d]pyrimidine] | weak but significant decrease of viability | 5.11 | decrease | 50% | 25% | significant reduction | – | – | – | –
2 | CC(C)c1n[nH]c2c(NCc3ccccc3)nc(NC3CCCCC3N)nc12 (stereo not drawn) [LGR 1406, 5-[(2-E/Z-aminocyclohexyl)amino]-7-benzylamino-3-isopropyl-1(2)H-pyrazolo[4,3-d]pyrimidine] | weak but significant decrease of viability | ~6.00 | decrease | 70% | 56% | significant reduction | 6.03 | 56% | 42% | –
3 | CC(C)c1n[nH]c2c(NCc3ccccc3)nc(NC3CCC(N)CC3)nc12 (stereo not drawn) [LGR 1407, 5-[(4-E-aminocyclohexyl)amino]-7-benzylamino-3-isopropyl-1(2)H-pyrazolo[4,3-d]pyrimidine] | weak but significant decrease of viability | 5.44 | decrease | 60% | about 30% | significant reduction | – | 35% | about 30% | 30%
